Results as given in the OPERA property sets (Mansouri et al. 2018).
≈ marks a conversion by molar mass, not a printed value.

Settings: for solubility: 25 °C

logP | solubility | Structure (SMILES)
2.5 | 0.562 mM (≈ 113 µg/mL) | O=Cc1cc(O)cc(Br)c1
1.83 | 6.62 mM (≈ 1330 µg/mL) | O=Cc1ccc(O)c(Br)c1
1.29 | – | O=Cc1cccc(O)c1
0.54 | 99.9 mM (≈ 13800 µg/mL) | O=Cc1cc(O)ccc1O
3.35 | 0.158 mM (≈ 41.8 µg/mL) | O=Cc1cc(Br)ccc1Br
1.63 | – | CCOc1ccc(C=O)cc1OC

The remaining lines, values behind:

Structure (SMILES) | logP | solubility
O=Cc1ccc(O)c(O)c1 | 1.09 | –
CC(C)OC(=O)COc1ccc(C=O)cc1 | 1.88 | –
COc1ccc(OC)c(C=O)c1 | 1.91 | 4.78 mM (≈ 795 µg/mL)
COc1ccc(C=O)cc1OC | – | 38 mM (≈ 6320 µg/mL)
COc1cc(C=O)cc(OC)c1OC | 1.39 | –
O=Cc1ccc(O)cc1 | – | 106 mM (≈ 12900 µg/mL)
